Source: ChEMBL document CHEMBL1221193, “Deconstructing fragment-based inhibitor discovery” (Nat Chem Biol, 2006)

Biological target: Beta-lactamase (Escherichia coli K-12, UniProt P00811)
Test: Inhibition of Escherichia coli AmpC assessed as nitrocefin hydrolysis by UV-Vis spectrophotometry

Chain of Beta-lactamase (P00811 whole entry): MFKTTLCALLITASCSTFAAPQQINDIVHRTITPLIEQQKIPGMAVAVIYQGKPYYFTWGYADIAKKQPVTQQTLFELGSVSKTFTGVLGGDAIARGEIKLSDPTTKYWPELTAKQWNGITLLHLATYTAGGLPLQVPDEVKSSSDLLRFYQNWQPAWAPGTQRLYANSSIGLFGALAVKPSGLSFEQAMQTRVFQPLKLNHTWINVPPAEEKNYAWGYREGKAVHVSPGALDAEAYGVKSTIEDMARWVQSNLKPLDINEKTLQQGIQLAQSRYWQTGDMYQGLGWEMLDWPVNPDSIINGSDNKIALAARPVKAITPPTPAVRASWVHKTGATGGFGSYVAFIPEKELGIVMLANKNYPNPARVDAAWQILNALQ

Ki | Compound
0.001 mM | O=C(O)c1ccc(NS(=O)(=O)c2ccsc2C(=O)O)c(O)c1
10 mM | CS(=O)(=O)Nc1ccc(C(=O)O)cc1
40 mM | O=C(O)c1cccs1 [THIOPHENE CARBOXYLIC ACID]
